According to patent US20050227982A1, “Antileishmanial dinitroaniline sulfanomides with activity against parasite tubulin” (priority 2002, published 2005):
Several values for one entry are separate records, joined by “and”; a condition that tells them apart may be missing. Identical values can stand only once. Like-named read-outs stand apart in the source and are kept apart here.

Legend:
[1] = tested on: leishmanial tubulin; conditions: reference 8; cited from earlier work
[2] = tested on: L. donovani promastigotes; assay: Growth inhibition of L. donovani promastigotes; type: cell-based, Leishmania donovani; conditions: for IC50: read-out: IC50 vs. L. donovani promastigotes
[3] = tested on: L. donovani axenic amastigotes; assay: Growth inhibition of L. donovani axenic amastigotes (three-day tetrazolium dye assay); type: cell-based, Leishmania donovani
Experimental: (§1) 2000, 110, 223-236, incorporated herein by reference.^14
(§2) Determination of the drug susceptibility of parasites and mammalian cells. The susceptibility of Leishmania donovani amastigote-like parasites (WHO designation: MHOM/SD/62/1S-CL2D) to growth inhibition by compounds of interest was measured in a three-day assay using the tetrazolium dye-based CellTiter reagent (Promega) (Werbovetz, K., Brendle, J., and Sackett, D. (1999) Mol. Biochem. Parasitol. 98, 53-65., and Havens, C., Bryant, N., Asher, L., Lamoreaux, L., Perfetto, S., Brendle, J., and Werbovetz, K. (2000) Mol. Biochem. Parasitol. 110, 223-236). The amastigote medium used in this assay is based on the medium mentioned by Joshi et al. (Joshi, M., Dwyer, D. M., and Nakhasi, H. L. (1993) Mol. Biochem. Parasitol. 58, 345-354). Prior to addition of fetal bovine serum to a final concentration of 20%, this amastigote medium contains 15 mM KCl, 115 mM KH2PO4, 10 mM K2HPO4, 0.5 mM MgSO4, 24 mM NaHCO3, a 1-concentration of RPMI-1640 vitamins and amino acids, 2.0 mM L-glutamine, 22 mM D-glucose, 100 units/mL penicillin, 100 ∝g/ml streptomycin, 0.1 mM adenosine, 1 ∝g/mL folate, and 25 mM MES (pH 5.5). Compounds were tested for their activity against bloodstream-form Trypanosoma brucei brucei (MITat 1.2, variant 221) axenically-cultured in HMI-9 medium , H., and Hirumi, K. (1989) J. Parasitol. 75, 985-989.) following the procedure of Ellis et al. (Ellis, J., Fish, W., Sileghem, M., and McOdimba, F. (1993) Vet. Parasitol. 50, 143-149.) with some modifications. Briefly, 100 μL of late log phase parasites were incubated in 96-well plates (Costar) at an initial concentration of 10^5 cells/ml with or without test compounds at 37° C. in a humidified 5% CO2 atmosphere for 72 hours. Twenty-five μL of a 5 mg/mL solution of MTT (prepared in phosphate buffered saline and filter sterilized) was then added to each well and plates were re-incubated at 37° C. as before for 2 h. One hundred ∝L of 20% SDS lysis buffer (prepared in 50% aqueous DMF) was added to each well and plates were incubated as before for an additional 3-4 h. Optical densities were then measured at 570 nm using SpectraMax Plus microplate reader. […] Assessment of the in vitro sensitivity of T. b. brucei Lab 110 EATRO and P. falciparum strains to compounds was performed by methods described in Donkor et al. (Donkor, I., Assefa, H., Rattendi, D., Lane, S., Vargas, M., Goldberg, B., and Bacchi, C. (2001) Eur. J. Med. Chem. 36, 531-538.) and Guan et al. (Guan, J., Kyle, D., Gerena, L., Zhang, Q., Milhous, W., and Lin, A. (2002) J. Med. Chem. 45, 2741-2748).

[4] = tested on: leishmanial tubulin; type: biochemical; conditions: mean ± SD of at least one duplicate measurement, SD of controls 27.6%
Experimental: as §1
Briefly, the tubulin assembly assays are performed as follows. […] The change in turbidity was measured at 351 nm using the SpectraMax Plus microplate reader immediately after GTP addition at 30° C. (for leishmanial tubulin) or 37° C. (for brain tubulin).

[5] = tested on: Trypanosoma brucei brucei (MITat 1.2, variant 221); assay: microbe, parasite or virus in culture; type: cell-based; conditions: read-out: IC50, T. b. brucei variant 221
Experimental: as §2

[6] = tested on: T. b. brucei Lab 110 EATRO; assay: In vitro sensitivity of T. b. brucei Lab 110 EATRO (Coulter counter, two-day); type: cell-based, Trypanosoma brucei brucei; conditions: read-out: IC50, T. b. brucei Lab 110 EATRO
Experimental: as §2

[7] = tested on: P. falciparum D6 strain; assay: In vitro sensitivity of P. falciparum D6 strain (tritiated hypoxanthine uptake); type: cell-based, Plasmodium falciparum
Experimental: as §2

[8] = tested on: P. falciparum W2 strain; assay: microbe, parasite or virus in culture; type: cell-based, Plasmodium falciparum
Experimental: as §2

[9] = tested on: J774 murine macrophages; assay: Toxicity to J774 macrophages (three-day CellTiter assay); type: cell-based
Experimental: (§3) The toxicity of compounds to J774 murine macrophages and PC3 […] cells was measured in a three-day assay using the CellTiter reagent. […] Macrophages were allowed to adhere for 24 hours, then the medium was removed and replaced with serial dilutions of the test compounds in the DMEM medium mentioned above without phenol red. After 72 hr incubation with the test compounds at 37° C. in a humidified 5% CO2 incubator, cell viability was determined using the CellTiter reagent by adding 20 μL of assay solution to each well. After a 6-7 h incubation at 37° C. to allow for color development, the absorbance of each well at 490 nm was measured in a SpectraMax Pro microplate reader (Molecular Devices). The toxicity of compounds to PC3 cells was assessed in the same manner as for the macrophages, except that the medium used was RPMI 1640 supplemented with 10% heat inactivated fetal calf serum, 2.0 mM L-glutamine, 50 units/mL penicillin, and 50 ∝g/mL streptomycin. IC50 values for the J774 and PC3 assays were determined with the software program SoftMax Pro as described earlier.

[10] = tested on: PC3 cells; assay: Toxicity to PC3 cells (three-day CellTiter assay); type: cell-based; conditions: read-out: IC50, PC3 prostate
Experimental: as §3

[11] = literature reference 4; cited from earlier work
[12] = tested on: L. donovani promastigotes; assay: Flow cytometry of DNA content in L. donovani promastigotes; type: cell-based, Leishmania donovani; conditions: 10 μM compound; for effect on cell cycle / DNA content by flow cytometry: 48 hour treatment of promastigotes
Experimental: Flow cytometry and fluorescence cell sorting. Parasites or J774 macrophages were incubated in T25 flasks (3-5 mL final volume) in the appropriate media described earlier for 24-48 h. Cultures contained 1% DMSO (v/v) in the presence or absence of test compounds. Cells were counted using a hemacytometer, then were centrifuged (1000×·g for parasites, 200×·g for macrophages) at 4° C. for 10 min (parasites) or 5 min (macrophages). Cells were resuspended in 150 μL of PBS (0.01 M phosphate, 0.137 M NaCl, and 2.7 mM KCl), then 350 μL of ice-cold methanol was added and the samples were fixed at −20° C. for 2-3 h. Cells were centrifuged as before and resuspended in PBS containing 0.1% TX-100, 5 μg/mL RNase A, and 10 μg/mL propidium iodide for 20-30 min. Centrifugation was repeated, then cells were resuspended in PBS to a final concentration of 5×10^5-10^6/mL and stored at 4° C. until analysis. Fluorescence cell sorting was conducted on a Beckman Coulter Elite flow cytometer.

[13] = read-out: IC50, J774 macrophages
[14] = Leishmania donovani, 72 h, Table 4, three-day tetrazolium dye assay, mean ± SD, read-out: IC50, L. donovani axenic amastigotes
[15] = Leishmania donovani, Table 1, mean ± standard deviation of at least two independent measurements, read-out: IC50 vs. L. donovani amastigotes
[16] = Trypanosoma brucei, 72 h, Table 4, three-day tetrazolium dye assay
[17] = Plasmodium falciparum, D6, read-out: IC50, P. falciparum D6 strain
[18] = Plasmodium falciparum, W2, read-out: IC50, P. falciparum W2 strain
[19] = Mus musculus, J774, Table 4, mean ± SD of at least two independent experiments, read-out: IC50, J774 macrophages

## O=[N+]([O-])c1cc(C(F)(F)F)cc([N+](=O)[O-])c1Cl [Chloralin, chloralin]
[1]
  inhibition of leishmanial tubulin polymerization (in words, earlier publication): inhibitor of leishmanial tubulin polymerization

## CCCNS(=O)(=O)c1cc([N+](=O)[O-])c(N(CCC)CCC)c([N+](=O)[O-])c1 [Compound 21, N1-Propyl-3,5-dinitro-N4,N4-di-n-propylsulfonilamide]
[2]; mean ± standard deviation of at least two independent measurements
  IC50: 56 ± 2.3 µM
[3]; read-out: IC50, L. donovani axenic amastigotes
  IC50: 54.3 µM and 56.9 µM
[3]; read-out: IC50 vs. L. donovani amastigotes
  IC50: 56.9 ± 3.4 µM
[4]
  % Inhibition of Leishmanial Tubulin Assembly at 20 μM Compound: 97 ± 1%
[5]
  IC50: 9.2 µM and 8.06 µM
[6]; Coulter counter after two-day incubation
  IC50: 3 µM
[7]; tritiated hypoxanthine uptake, read-out: IC50, P. falciparum D6 strain
  IC50: 13 µM
[8]; tritiated hypoxanthine uptake, read-out: IC50, P. falciparum W2 strain
  IC50: > 25 µM
[9]; [13]
  IC50: 21.8 ± 2.1 µM
[10]; three-day tetrazolium dye assay, mean ± SD
  IC50: 40.5 ± 8.6 µM

## CCCCCCN(CCCCCC)c1c([N+](=O)[O-])cc(S(N)(=O)=O)cc1[N+](=O)[O-] [Compound 17]
[2]; Leishmania donovani
  IC50: 12.2 µM
[3]; [14]
  IC50: 11.7 ± 0.7 µM
[3]; [15]
  IC50: 11.7 ± 0.7 µM
[4]
  % Inhibition of Leishmanial Tubulin Assembly at 20 μM Compound: 48 ± 19%
[5]; [16]
  IC50: 9.48 ± 1.73 µM
[6]; Trypanosoma brucei, 48 h
  IC50: 5.6 µM
[7]; [17]
  IC50: 10 µM
[8]; [18]
  IC50: 12 µM
[9]; [19]
  IC50: 1.91 ± 0.36 µM
[10]; Homo sapiens, PC-3, 72 h
  IC50: 11.2 ± 1.3 µM

## CCCN(CCC)c1c([N+](=O)[O-])cc(C(F)(F)F)cc1[N+](=O)[O-] [Trifluralin, trifluralin]
[11]
  aqueous solubility (in words): low solubility

## CCCN(CCC)c1c([N+](=O)[O-])cc(S(=O)(=O)Nc2ccccc2)cc1[N+](=O)[O-] [Compound 20, N1-Phenyl-3,5-dinitro-N4,N4-di-n-propylsulfonilamide]
[2]; Leishmania donovani
  IC50: 14.7 ± 1 µM
[2]; relative to oryzalin 3
  fold more active than 3 against promastigotes: 3.0 fold
[3]
  fold more active than 3 against L. donovani axenic amastigotes: 13.4 fold
[3]; Leishmania donovani, 72 h, read-out: IC50, L. donovani axenic amastigotes
  IC50: 5.03 ± 1.08 µM
[3]; Leishmania donovani, read-out: IC50 vs. L. donovani amastigotes
  IC50: 5.41 ± 0.89 µM
[4]
  % Inhibition of Leishmanial Tubulin Assembly at 20 μM Compound: 108 ± 7%
[5]; Trypanosoma brucei, 72 h
  IC50: 0.412 ± 0.044 µM
[5]; Trypanosoma brucei
  IC50: 0.4 µM
[6]; Trypanosoma brucei, 48 h
  IC50: 0.58 µM
[7]; [17]
  IC50: 11 µM
[8]; [18]
  IC50: 13 µM
[9]; Mus musculus, J774, read-out: IC50, J774 macrophages
  IC50: 28.3 ± 3.8 µM
[9]; [13]
  IC50: 30.8 ± 1.9 µM
[10]; Homo sapiens, PC-3, 72 h
  IC50: 41.3 ± 8.5 µM
[12]
  effect on cell cycle / DNA content by flow cytometry: appearance of parasites containing approximately 4×, 8×, and 16× more DNA
[12]; control cultures doubled approximately three times
  parasite cell density over 48 hours: remained at the same cell density
other
  melting point: 120 °C

## CCCCCN(CCCCC)c1c([N+](=O)[O-])cc(S(N)(=O)=O)cc1[N+](=O)[O-] [Compound 16]
[2]; Leishmania donovani
  IC50: 8.02 ± 0.42 µM
[3]; [15]
  IC50: 9 ± 0.7 µM
[4]
  % Inhibition of Leishmanial Tubulin Assembly at 20 μM Compound: 95 ± 5%

## CCCCN(CCCC)c1c([N+](=O)[O-])cc(S(N)(=O)=O)cc1[N+](=O)[O-] [Compound 15, 4(dibutylamino)-3,5-dinitrobenzenesulfonamide]
[2]; Leishmania donovani
  IC50: 17.8 ± 2.6 µM
[3]; [14]
  IC50: 20.1 ± 0.2 µM
[3]; Leishmania donovani, 72 h, unit inferred, three-day tetrazolium dye assay, read-out: IC50, L. donovani axenic amastigotes
  IC50: 20.1 ± 0.2 µM
[3]; [15]
  IC50: 20.1 ± 0.2 µM
[4]
  % Inhibition of Leishmanial Tubulin Assembly at 20 μM Compound: 89 ± 3%
[5]; [16]
  IC50: 2.57 ± 0.7 µM
[5]; Trypanosoma brucei, unit inferred
  IC50: 2.57 ± 0.7 µM
[6]; Trypanosoma brucei, 48 h
  IC50: 1.8 µM
[7]; [17]
  IC50: 5.1 µM
[8]; [18]
  IC50: 4.3 µM
[9]; [19]
  IC50: 8.43 ± 0.69 µM
[9]; Mus musculus, J774, table after b111, unit inferred, read-out: IC50, J774 macrophages
  IC50: 8.43 ± 0.69 µM
[10]; Homo sapiens, PC-3, 72 h
  IC50: 17.2 ± 2.8 µM
[12]
  effect on cell cycle / DNA content by flow cytometry: accumulate in the G2M phase of the cell cycle
